SMILES strings stand for the structures. “And” between values parts separate entries of the source, which are not always exact repeats. Equal entries are not always repeated.

Five molecules from patent US4287194A, “Compositions with potentiated hypotensive effects” (priority 1978, dated 1981) can be followed below.

Data set [1] deals with genetically hypertensive awake rats. Kind of data set: Hypotensive effect on awake rats suffering from genetic hypertension (method of Eaton, modified). Format: in vivo, Wistar-Okamoto rats.
Data set [2] is described as follows: Oral acute toxicity (LD50) of the individual components, one week observation. Particulars: mouse, in vivo. On the procedure:
Based on the data given in points 1 and 2 above it can be stated that a considerable potentiating synergism appears with respect to the hypotensive effect when applying the compounds of formula (I) in combination with those of formula (V). In the following it was investigated whether this synergism also appears with respect to the toxicity. In the first test series the LD50 values of the individual components were determined on CFLP-mice. The compounds were administered orally, and the animals were kept under observation for one week. The LD50 values of the individual compounds are as follows: […]

Data set [3] concerns awake dogs with renal hypertension. Kind of data set: Hypotensive effect on awake dogs suffering from renal hypertension (Grollman operation). Format: in vivo. The source says: (2) Determination of the hypotensive effect on awake dogs suffering from renal hypertension
Data set [4] is described as follows: Toxicity (mortality) of combinations: pre-treatment for one hour with 11,473 or 11,121, then pindolol. Details: species or system CFLP-mice. Particulars: mouse, in vivo, po. On the procedure:
Based on the data given in points 1 and 2 above it can be stated that a considerable potentiating synergism appears with respect to the hypotensive effect when applying the compounds of formula (I) in combination with those of formula (V). In the following it was investigated whether this synergism also appears with respect to the toxicity. In the first test series the LD50 values of the individual components were determined on CFLP-mice. The compounds were administered orally, and the animals were kept under observation for one week. The LD50 values of the individual compounds are as follows:
To determine the toxicity values of the combinations dosages calculated on the basis of the isobole construction principle were applied. The animals were pre-treated for one hour with various dosages of 11,473 or 11,121, and then varying dosages of pindolol were administered.

In the case of `COC(=O)c1ccc(O)c(CON)c1.Cl` [11,121, 2-hydroxy-5-carbomethoxy-benzyloxyamine hydrochloride], in data set [1] (50 mg/kg p.o.), the “Blood pressure after 2 hours” value was 170.0 mmHg, the “Blood pressure after 5 hours” value was determined as 163.0 mmHg and the “Blood pressure after 24 hours” value was found to be 169.0 mmHg. Moreover, the “Blood pressure, basal value” in data set [1] (50 mg/kg p.o., basal value) came out at 168.2 mmHg. In data set [2] (p.o., one week observation), the LD50 at 168 h stood at 2900 mg/kg. In addition, in data set [3] (5 mg/kg p.o.), the “Blood pressure after 1 hour” value worked out at 170.0 mmHg, the “Blood pressure after 2 hours” value is recorded as 167.5 mmHg, the “Blood pressure after 3 hours” value was 175.0 mmHg and the “Blood pressure after 4 hours” value is given as 165.0 mmHg. Further, in data set [3] (5 mg/kg p.o.), the “Blood pressure after 5 hours” value worked out at 172.5 mmHg; the “Blood pressure after 24 hours” value came out at 165.0 mmHg; the “Blood pressure, basal value” was found to be 165.0 mmHg.
Regarding `Cl.NOCc1ccc([N+](=O)[O-])c(O)c1` [11,130, 3-hydroxy-4-nitro-benzyloxyamine hydrochloride], in data set [1] (20 mg/kg p.o.), the “Blood pressure after 2 hours” value was 183.0 mmHg, the “Blood pressure after 5 hours” value amounted to 176.0 mmHg and the “Blood pressure after 24 hours” value was determined as 172.0 mmHg. Moreover, the “Blood pressure, basal value” in data set [1] (20 mg/kg p.o., basal value) came to 174.0 mmHg.
Regarding `CCOC(=O)CC(C)=NNc1ccc(Cl)nn1` [11,473, N^1-(3-Chloro-6-pyridazinyl)-N^2-(1-carbethoxy-2-propylidene)-hydrazine], in data set [1] (10 mg/kg p.o.), the “Blood pressure after 2 hours” value amounted to 194.0 mmHg, the “Blood pressure after 5 hours” value was determined as 197.0 mmHg and the “Blood pressure after 24 hours” value is on record as 198.0 mmHg. Moreover, the “Blood pressure, basal value” in data set [1] (10 mg/kg p.o., basal value) came out at 195.0 mmHg. The LD50 at 168 h in data set [2] (p.o., one week observation) worked out at 360 mg/kg.
For the molecule `CC(C)NCC(O)COc1cccc2[nH]ccc12.Cl` (stereo not drawn) [Pindolol, 1-(4-indolyloxy)-3-isopropylamino-2-propanol hydrochloride], the “Blood pressure after 2 hours” value in data set [1] (0.25 mg/kg p.o., hydrochloride) is 180.8 mmHg and 181.6 mmHg; in data set [1] (0.5 mg/kg p.o., hydrochloride), 161.4 mmHg and 191.2 mmHg and 172.1 mmHg; in data set [1] (1 mg/kg p.o.), 135.0 mmHg; in data set [1] (5 mg/kg p.o.), 154.5 mmHg; in data set [3] (0.1 mg/kg p.o.), 133.3 mmHg. Also, the “Blood pressure after 5 hours” value in data set [1] (0.25 mg/kg p.o., hydrochloride) was 164.9 mmHg and 168.8 mmHg; in data set [1] (0.5 mg/kg p.o., hydrochloride), 160.5 mmHg and 188.3 mmHg and 160.8 mmHg; in data set [1] (1 mg/kg p.o.), 135.0 mmHg; in data set [1] (5 mg/kg p.o.), 124.5 mmHg; in data set [3] (0.1 mg/kg p.o.), 160.0 mmHg. Besides, the “Blood pressure after 24 hours” value in data set [1] (0.25 mg/kg p.o., hydrochloride) was 183.4 mmHg and 188.8 mmHg; in data set [1] (0.5 mg/kg p.o., hydrochloride), 150.5 mmHg and 188.9 mmHg and 188.6 mmHg; in data set [1] (1 mg/kg p.o.) it was 151.1 mmHg; in data set [1] (5 mg/kg p.o.), 161.0 mmHg; in data set [3] (0.1 mg/kg p.o.) it was 153.3 mmHg. Besides, the “Blood pressure, basal value” in data set [1] (0.25 mg/kg p.o., basal value (before treatment), hydrochloride) was 182.2 mmHg and 184.4 mmHg; in data set [1] (0.5 mg/kg p.o., basal value, hydrochloride) it was 165.0 mmHg and 200.0 mmHg and 200.3 mmHg; in data set [1] (1 mg/kg p.o., basal value), 164.4 mmHg; in data set [1] (5 mg/kg p.o., basal value) it was 172.5 mmHg; in data set [3] (0.1 mg/kg p.o.), 156.7 mmHg. Further, the ED30 in data set [1] (Rattus norvegicus, po, read-out: ED30% (dosage which decreases the blood pressure by 30% related to the value before treatment), p.o., given alone) is ~5 mg/kg. Besides, in data set [1] (p.o., given alone, hydrochloride), the “ED30% (dosage which decreases the blood pressure by 30% related to the value before treatment)” value turned out to be 5 mg/kg. Besides, in data set [2], the LD50 at 168 h was found to be 300 mg/kg. For the same molecule, the “Blood pressure after 1 hour” value in data set [3] (0.1 mg/kg p.o.) was found to be 133.3 mmHg. In data set [3] (0.1 mg/kg p.o.), the “Blood pressure after 3 hours” value is on record as 153.0 mmHg. In data set [3] (0.1 mg/kg p.o.), the “Blood pressure after 4 hours” value is 156.7 mmHg. Further, the mortality amounted to 0% in data set [4] (pindolol alone 60 mg/kg p.o.); 0% in data set [4] (pindolol alone 90 mg/kg p.o.); 8% in data set [4] (pindolol alone 135 mg/kg p.o.); 16% in data set [4] (pindolol alone 200 mg/kg p.o.); 46% in data set [4] (pindolol alone 300 mg/kg p.o.); 75% in data set [4] (pindolol alone 450 mg/kg p.o.).
On to `CC(C)NCC(O)COc1cccc2ccccc12.Cl` (stereo not drawn) [Propranolol, 1-(1-Naphthyloxy)-3-isopropylamino-2-propanol hydrochloride], for which the entries for the “Blood pressure after 2 hours” value in data set [1] (1 mg/kg p.o.), in data set [1] (5 mg/kg p.o.) and in data set [1] (10 mg/kg p.o.) were 170.0 mmHg, 178.6 mmHg and 170.0 mmHg, respectively. Besides, the “Blood pressure after 5 hours” value came to 168.7 mmHg in data set [1] (1 mg/kg p.o.), 175.9 mmHg in data set [1] (5 mg/kg p.o.) and 148.3 mmHg in data set [1] (10 mg/kg p.o.). Moreover, the “Blood pressure after 24 hours” value stood at 157.5 mmHg in data set [1] (1 mg/kg p.o.), 181.8 mmHg in data set [1] (5 mg/kg p.o.) and 163.7 mmHg in data set [1] (10 mg/kg p.o.). Also, the “Blood pressure, basal value” turned out to be 167.5 mmHg in data set [1] (1 mg/kg p.o., basal value); 186.4 mmHg in data set [1] (5 mg/kg p.o., basal value); 178.0 mmHg in data set [1] (10 mg/kg p.o., basal value). For the same molecule, the ED15 in data set [1] (Rattus norvegicus, po) was ~10 mg/kg.

In general, LD50 refers to the dose at which mortality reaches 50%. What is called mortality is the percentage killed.
